From ChEMBL document CHEMBL1201862, “PubChem BioAssay data set” (2004)
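Five compound concentrations were applied to cells in 96-well plates for 48 hours; endpoints were derived by simple linear interpolation of the resulting dose-response curve. Abbreviation: GI50, concentration required for 50% inhibition of growth.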 Calls of active or inactive are those of the source. No stated cut-off is given here; in the data, active = GI50 up to about 1.1 µM and inactive = higher.

What was measured:
Test in all cases: inhibition of tumour cell growth, NCI panel, 48 h
[1] = test system: HCC 2998
[2] = test system: HOP-92
[3] = test system: MOLT-4
[4] = test system: UACC-257
[5] = test system: OVCAR-8
[6] = test system: HT-29
[7] = test system: IGROV-1
[8] = test system: TK-10
[9] = test system: NCI-H23
[10] = test system: SK-MEL-28
[11] = test system: RPMI-8226
[12] = test system: OVCAR-3
[13] = test system: KM12
[14] = test system: SW-620
[15] = test system: ACHN
[16] = test system: SK-MEL-2
[17] = test system: SR

Measured: GI50

Cc1cccc(C(C)(C)C)c1NC(=O)CCc1n[nH]c(=S)o1
inactive: [1] > 100 µM | [2] > 100 µM | [3] > 100 µM | [4] > 100 µM | [5] > 100 µM | [6] > 100 µM | [7] > 100 µM | [8] > 100 µM | [9] > 100 µM | [10] > 100 µM | [11] 22.8 µM | [12] > 100 µM | [13] > 100 µM | [14] 15.9 µM | [15] > 100 µM

CCCc1n[nH]c(CCC(=O)N(Cc2ccccc2)Cc2ccccc2)c1CC
inactive: [1] > 100 µM | [3] > 100 µM | [4] > 100 µM | [5] > 100 µM | [6] > 100 µM | [7] > 100 µM | [8] > 100 µM | [16] > 100 µM | [9] > 100 µM | [10] > 100 µM | [11] > 100 µM | [12] > 100 µM | [13] > 100 µM | [14] > 100 µM | [15] > 100 µM

N#CCCN(c1ccc(/C=C2\N=C(c3ccc(Cl)cc3)OC2=O)cc1)S(=O)(=O)c1ccccc1
inactive: [1] > 100 µM | [17] > 100 µM | [3] > 100 µM | [4] > 100 µM | [5] > 100 µM | [6] > 100 µM | [7] > 100 µM | [8] > 100 µM | [16] > 100 µM | [9] > 100 µM | [10] > 100 µM | [11] > 100 µM | [12] > 100 µM | [13] > 100 µM | [14] > 100 µM | [15] > 100 µM

CN(CCCN1C(=O)c2cccc3cc([N+](=O)[O-])cc(c23)C1=O)CCN(C)CCCN1C(=O)c2cccc3cc([N+](=O)[O-])cc(c23)C1=O
inactive: [1] 21.2 µM | [3] 1.51 µM | [4] > 39.3 µM | [5] 2.74 µM | [6] 7.67 µM | [7] 16 µM | [8] > 39.3 µM | [16] 13.3 µM | [9] > 39.3 µM | [10] 25.5 µM | [11] 2.23 µM | [12] > 39.3 µM | [13] 24.7 µM | [14] 2.48 µM | [15] 17.9 µM

NC(N)NCCCc1cn2c(n1)C1CCCN1C(=O)C2Cc1ccccc1 (stereo unspecified)
inactive: [1] > 100 µM | [3] > 100 µM | [4] > 100 µM | [5] > 100 µM | [6] > 100 µM | [7] > 100 µM | [8] > 100 µM | [16] > 100 µM | [9] > 100 µM | [10] > 100 µM | [11] > 100 µM | [12] > 100 µM | [13] > 100 µM | [14] > 100 µM | [15] > 100 µM

Cc1cccc(NC(=O)CSc2nnc(Cc3ccccc3)o2)c1
inactive: [1] > 100 µM | [3] > 100 µM | [4] > 100 µM | [5] > 100 µM | [6] > 100 µM | [7] > 100 µM | [8] > 100 µM | [16] > 100 µM | [9] > 100 µM | [10] > 100 µM | [12] > 100 µM | [13] > 100 µM | [14] > 100 µM | [15] > 100 µM

O=C1CCC(=O)N2CCCCN12
inactive: [1] > 100 µM | [2] > 100 µM | [3] > 100 µM | [4] > 100 µM | [5] > 100 µM | [6] > 100 µM | [7] > 100 µM | [8] > 100 µM | [16] > 100 µM | [9] > 100 µM | [10] > 100 µM | [12] > 100 µM | [13] > 100 µM | [14] > 100 µM | [15] > 100 µM

Cc1c(C2Cc3ccccc3N2)c2ccccc2n1C (stereo unspecified)
inactive: [1] > 100 µM | [17] > 100 µM | [3] > 100 µM | [4] > 100 µM | [5] > 100 µM | [6] > 100 µM | [7] > 100 µM | [8] > 100 µM | [16] > 100 µM | [9] > 100 µM | [12] > 100 µM | [13] > 100 µM | [14] > 100 µM | [15] > 100 µM

CC(=O)O[C@H]1CC[C@@]2(C)C(=CC[C@H]3C(CC#N)[C@@](C)(C#N)CCC32)C1 (stereo partly specified)
inactive: [1] > 100 µM | [2] 16.1 µM | [3] > 100 µM | [4] > 100 µM | [5] > 100 µM | [6] > 100 µM | [7] > 100 µM | [8] > 100 µM | [16] > 100 µM | [9] > 100 µM | [10] > 100 µM | [11] > 100 µM | [12] > 100 µM | [13] > 100 µM | [14] > 100 µM | [15] > 100 µM

COc1ccc(/C=C/c2cc(OC)c(OC(C)=O)c(OC)c2)cc1
inactive: [1] 20.7 µM | [2] 28.1 µM | [3] 20.3 µM | [4] 20.7 µM | [5] 22 µM | [6] 26.5 µM | [7] 36.8 µM | [16] 37.2 µM | [9] 20.7 µM | [10] 9.68 µM | [11] 31.8 µM | [12] 41.2 µM | [15] 33 µM

NC(CCCCNCc1ccccc1O)C(=O)O (stereo unspecified)
inactive: [1] > 100 µM | [2] > 100 µM | [3] > 100 µM | [4] > 100 µM | [5] > 100 µM | [6] > 100 µM | [7] > 100 µM | [8] > 100 µM | [16] > 100 µM | [9] > 100 µM | [10] > 100 µM | [11] > 100 µM | [12] > 100 µM | [13] > 100 µM | [14] > 100 µM | [15] > 100 µM

c1ccc2c(c1)Cc1c(Cc3csc4ccccc34)ccc3cccc-2c13
inactive: [1] > 100 µM | [2] > 100 µM | [3] > 100 µM | [4] > 100 µM | [5] > 100 µM | [6] > 100 µM | [7] > 100 µM | [8] > 10 µM | [16] > 100 µM | [9] > 100 µM | [10] > 100 µM | [11] > 100 µM | [12] > 100 µM | [13] > 100 µM | [14] > 100 µM | [15] > 100 µM

CCOC(=O)C12CCCC1(O)N(NC(=O)OC(C)(C)C)C(C)=C2C(=O)OC (stereo unspecified)
inactive: [1] > 100 µM | [2] > 100 µM | [3] > 100 µM | [4] > 100 µM | [5] > 100 µM | [6] > 100 µM | [7] > 100 µM | [8] > 100 µM | [16] > 100 µM | [9] > 100 µM | [10] > 10 µM | [11] > 100 µM | [12] > 100 µM | [13] > 100 µM | [14] > 100 µM | [15] > 100 µM
